Legend:
in vitro [1] = settings: chlorocebus sabaeus, Vero E6 cells
Cathepsin S [2] = target: T1, Cathepsin S (Homo sapiens, UniProt P25774); assay: Inhibition of human cathepsin S at 1 uM incubated for 30 mins by fluorometric analysis
Target sequence in this assay (P25774 115-331 limits assumed): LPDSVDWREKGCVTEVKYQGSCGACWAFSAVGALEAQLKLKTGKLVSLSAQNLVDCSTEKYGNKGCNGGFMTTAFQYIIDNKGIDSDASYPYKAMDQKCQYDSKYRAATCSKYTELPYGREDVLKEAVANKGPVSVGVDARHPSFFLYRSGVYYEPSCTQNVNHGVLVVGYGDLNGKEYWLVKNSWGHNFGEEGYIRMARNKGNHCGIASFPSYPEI

in vitro [3] = settings: human, A549 cells
[4] = target: Replicase polyprotein 1ab (Severe acute respiratory syndrome coronavirus 2, UniProt P0DTD1); assay: Inhibition of SARS-CoV-2 3CL protease incubated for 30 mins by FRET assay
Cathepsin B [5] = target: T2, Cathepsin B (Homo sapiens, UniProt P07858); assay: Inhibition of human cathepsin B at 1 uM incubated for 30 mins by fluorometric analysis
SARS-CoV-2 = assay: microbe, parasite or virus in culture; settings: Severe acute respiratory syndrome coronavirus 2, Vero C1008, 48 h
[6] = Dissociation constant, pKa of the compound; format: physicochemical
Cathepsin S [7] = target: T1, Cathepsin S; assay: Inhibition of human cathepsin S incubated for 30 mins by fluorometric analysis
Target sequence in this assay (P25774 whole entry): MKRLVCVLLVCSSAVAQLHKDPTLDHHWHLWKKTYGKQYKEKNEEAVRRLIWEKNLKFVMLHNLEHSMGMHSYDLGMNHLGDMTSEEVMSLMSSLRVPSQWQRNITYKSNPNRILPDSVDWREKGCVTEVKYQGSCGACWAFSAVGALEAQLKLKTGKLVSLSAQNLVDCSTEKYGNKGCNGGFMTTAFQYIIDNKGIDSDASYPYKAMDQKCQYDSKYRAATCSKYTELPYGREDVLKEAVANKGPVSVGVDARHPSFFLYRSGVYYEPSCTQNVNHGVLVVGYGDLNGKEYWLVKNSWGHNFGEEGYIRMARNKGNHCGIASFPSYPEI

[8] = Metabolic stability in CD-1 mouse Hepatocytes assessed as half life at 3 uM measured upto 90 mins by LC-MS/MS analysis; format: ADME, cell-based, Hepatocyte; settings: for half-life at 3 µM: CD-1, mouse
[9] = Metabolic stability in human plasma measured at 2 hrs by LC-MS analysis; format: ADME, cell-free; settings: read-out: Stability
[10] = Cytotoxicity against human Huh-7 cells assessed as reduction in cell viability incubated for 24 hrs by Celltiter-glo luminescent cell viability assay; format: toxicity, cell-based
[11] = Cytotoxicity against human MRC5 cells assessed as reduction in cell viability incubated for 24 hrs by Celltiter-glo luminescent cell viability assay; format: toxicity, cell-based
Cathepsin B [12] = target: T2, Cathepsin B; assay: Inhibition of human cathepsin B incubated for 30 mins by fluorometric analysis
[13] = Microsomal stability in CD-1 mouse liver microsomes assessed as half life at 1 uM measured upto 60 mins in presence of NADPH by LC-MS/MS analysis; format: ADME, Microsome; settings: for half-life at 1 µM: CD-1, mouse, liver microsomes; for Stability: mouse, microsomes, 1 h, 1 µM
[14] = Stability of compound in glutathione at pH 7.4 after 24 hrs by LC-MS analysis; format: physicochemical; settings: read-out: Stability
[15] = Lipophilicity, log D of the compound at phosphate buffer pH 7.4 by shake flask method based LC-MS/MS analysis; format: physicochemical
[16] = Apparent permeability from basolateral to apical side in human Caco-2 cells at 2 uM with pH 7.4 incubated for 2 hrs by LC-MS analysis; format: ADME, cell-based; settings: for Papp B→A at 2 h, 2 µM: Caco-2, pH 7.4; for permeability: caco-2, pH 7.4, 2 h, 2 µM
[17] = Antiviral activity against Human coronavirus OC43 infected in human Huh-7 cells assessed as reduction in virus-induced cytopathic effect incubated for 7 days by Celltiter-Glo assay; format: functional, cell-based; settings: Betacoronavirus 1, OC43, Huh-7, 168 h
[18] = Stability in CD-1 mouse plasma assessed as half life at 2 uM measured upto 120 mins by LC-MS/MS analysis; format: ADME, cell-free
Human coronavirus 229E = assay: Antiviral activity against Human coronavirus 229E infected in human MRC5 cells assessed as reduction in virus-induced cytopathic effect incubated for 3 days by Celltiter-Glo assay; format: functional, organism-based; settings: MRC5, 72 h
[19] = Metabolic stability in human plasma assessed as half life measured upto 2 hrs by LC-MS analysis; format: ADME, cell-free
[20] = Selectivity index, ratio of CC50 for cytotoxicity against human A549 cells assessed as reduction in cell viability to EC50 for antiviral activity against SARS-CoV-2 3CL protease; format: toxicity, cell-based; settings: read-out: Ratio CC50/EC50
[21] = Selectivity index, ratio of CC50 for cytotoxicity against African green monkey VeroE6 cells assessed as reduction in cell viability to EC50 for antiviral activity against SARS-CoV-2 3CL protease; format: toxicity, cell-based; settings: read-out: Ratio CC50/EC50
[22] = Metabolic stability in CD-1 mouse liver microsomes assessed as half life at 1 uM measured upto 60 mins in absence of NADPH by LC-MS/MS analysis; format: ADME, Microsome

Row | SMILES | CC50 at 24 h (in vitro [1]) [nM] | inhibition (Cathepsin S [2]) [%] | CC50 at 24 h (in vitro [3]) [nM] | IC50 [4] [nM] | inhibition (Cathepsin B [5]) [%] | EC50 (SARS-CoV-2) [nM] | pKa [6] | remaining at 2 h [9] [%] | CC50 at 24 h [10] [nM] | CC50 at 24 h [11] [nM] | EC50 [17] [nM] | EC50 (Human coronavirus 229E) [nM] | other results
1 | COc1cccc2[nH]c(C(=O)N[C@@H](CC(C)C)C(=O)N[C@@H](C[C@@H]3CCCNC3=O)C(=O)CO)cc12 | > 200000 | 60.8 | > 200000 | 19.5 | 26.5 | 10100 |  |  |  |  |  |  | 
2 | COc1cccc2[nH]c(C(=O)N[C@@H](CC(C)C)C(=O)N[C@@H](C[C@@H]3CCCNC3=O)C(=O)COC(=O)c3ccncc3)cc12 |  |  |  | 32.9 |  | > 10000 | 1.77 |  |  |  |  |  | 
3 | COc1cccc2[nH]c(C(=O)N[C@@H](CC(C)C)C(=O)N[C@@H](C[C@@H]3CCCNC3=O)C(=O)COC(=O)c3c(C)nc(C)nc3C)cc12 | > 200000 |  | > 200000 |  |  |  | 2 |  |  |  |  |  | 
4 | COc1cccc2[nH]c(C(=O)N[C@@H](CC(C)C)C(=O)N[C@@H](C[C@@H]3CCCNC3=O)C(=O)COC(=O)c3c(C)cc(C)nc3C)cc12 | > 200000 | 98.1 | > 200000 | 19 | 86.7 |  | 1.7 | 100 | > 100000 | > 100000 | 54 | 48 | IC50 (Cathepsin S [7]): 51.5 nM; half-life at 3 µM [8]: 2.7 min; IC50 (Cathepsin B [12]): 201 nM; half-life at 1 µM [13]: 1.1 min; remaining at 24 h [14]: > 80%; logD [15]: 4.41; Papp B→A at 2 h, 2 µM [16]: 21.8 ×10⁻⁶ cm/s; half-life at 2 µM [18]: > 289 min
5 | COc1cccc2[nH]c(C(=O)N[C@@H](CC(C)C)C(=O)N[C@@H](C[C@@H]3CCCNC3=O)C(=O)COC(=O)C(C)(C)C)cc12 |  |  |  |  |  | > 10000 | 5.03 | 100 |  |  |  |  | 
6 | CC(=O)OCC(=O)[C@H](C[C@@H]1CCNC1=O)NC(=O)[C@H](CC(C)C)NC(=O)OCc1cccc(Cl)c1 | > 200000 |  | > 200000 | 1500 |  | 21500 |  |  |  |  |  |  | 
7 | O=C[C@H](C[C@@H]1CCNC1=O)NC(=O)[C@H](CC1CCCCC1)NC(=O)OCc1cccc(Cl)c1 |  | 99.3 |  |  | 72.5 |  |  |  |  |  |  |  | 
8 | COc1cccc2[nH]c(C(=O)N[C@@H](CC(C)C)C(=O)N[C@@H](C[C@@H]3CCCNC3=O)C(=O)COC(=O)C(C)(C)C#N)cc12 |  |  |  |  |  | > 10000 | 2.4 | 0 |  |  |  |  | half-life [19]: < 15 min
9 | COc1cccc2[nH]c(C(=O)N[C@@H](CC(C)C)C(=O)N[C@@H](C[C@@H]3CCCNC3=O)C(=O)COC(=O)C3(C(F)(F)F)CCCCC3)cc12 | > 200000 | 84.2 | > 200000 |  | 38.6 | 600 | 3.4 | 97 | > 100000 | > 100000 | 395 | 196 | IC50 (Cathepsin S [7]): 444 nM; IC50 (Cathepsin B [12]): 2850 nM; selectivity ratio [20]: > 333; selectivity ratio [21]: > 333
10 | COc1cccc2[nH]c(C(=O)N[C@@H](CC(C)C)C(=O)N[C@@H](C[C@@H]3CCCNC3=O)C(=O)COC(=O)C(C)(C)C(F)(F)F)cc12 | > 200000 |  | > 200000 |  |  | > 5000 | 3.2 | 25 | 94600 | > 100000 | 195 | 112 | Stability ([8]; mouse, 1.5 h, 3 µM): Unstable; Stability ([22]; mouse, microsomes, 1 h, 1 µM): Unstable; Stability [13]: Unstable; logD [15]: 4.89; permeability [16]: Impermeable; half-life at 2 µM [18]: 11.6 min; half-life [19]: 67 min
11 | COc1cccc2[nH]c(C(=O)N[C@@H](CC(C)C)C(=O)N[C@@H](C[C@@H]3CCCNC3=O)C(=O)COC(=O)c3cccnc3)cc12 |  |  |  |  |  | > 10000 | 2 | 2 |  |  |  |  | half-life [19]: < 15 min
12 | COc1cccc2[nH]c(C(=O)N[C@@H](CC(C)C)C(=O)N[C@@H](C[C@@H]3CCNC3=O)C(=O)COC(=O)c3c(C(F)(F)F)cc(C)nc3C)cc12 | > 200000 |  | > 201000 |  |  |  |  |  | 44900 | > 100000 | 33 | 13 | half-life at 3 µM [8]: 1.9 min; half-life at 1 µM [13]: 1.1 min; logD [15]: 4.57; Papp B→A at 2 h, 2 µM [16]: 24.3 ×10⁻⁶ cm/s; half-life at 2 µM [18]: > 289 min
13 | COc1cccc2[nH]c(C(=O)N[C@@H](CC(C)C)C(=O)N[C@@H](C[C@@H]3CCCNC3=O)C(=O)COC(=O)c3c(C(F)(F)F)cccc3C(F)(F)F)cc12 | > 200000 | 96.8 | > 200000 |  | 91.3 | 160 | 1.9 | 100 | 94600 | > 100000 | 47 | 29 | IC50 (Cathepsin S [7]): 116 nM; IC50 (Cathepsin B [12]): 464 nM; selectivity ratio [20]: > 1250; selectivity ratio [21]: > 1250
14 | COc1cccc2[nH]c(C(=O)N[C@@H](CC(C)C)C(=O)N[C@@H](C[C@@H]3CCCNC3=O)C(=O)COC(=O)C3(C)OCCCO3)cc12 |  |  |  | 12.5 |  | > 10000 | 2.7 |  |  |  |  |  | 
15 | COc1cccc2[nH]c(C(=O)N[C@@H](CC(C)C)C(=O)N[C@@H](C[C@@H]3CCCNC3=O)C(=O)COC(=O)c3c(C)nn(C)c3C)cc12 |  |  |  | 71.5 |  | > 10000 | 2.2 |  |  |  |  |  | 
16 | COc1cccc2[nH]c(C(=O)N[C@@H](CC(C)C)C(=O)N[C@@H](C[C@@H]3CCCNC3=O)C(=O)COC(=O)c3c(Cl)cccc3Cl)cc12 | > 200000 |  | > 200000 |  |  |  | 1.26 |  | > 100000 | > 100000 | 35 | 21 | half-life at 3 µM [8]: 2.3 min; half-life at 1 µM ([22]; CD-1, mouse, liver microsomes): < 180 min; Stability [13]: Unstable; logD [15]: > 5.07; permeability [16]: Impermeable; half-life at 2 µM [18]: 170 min
17 | COc1cccc2[nH]c(C(=O)N[C@@H](CC(C)C)C(=O)N[C@@H](C[C@@H]3CCCNC3=O)C(=O)COC(=O)c3ccccn3)cc12 |  |  |  | 126 |  | > 10000 | 0.99 |  |  |  |  |  | 
18 | COc1cccc2[nH]c(C(=O)N[C@@H](CC(C)C)C(=O)N[C@@H](C[C@@H]3CCCNC3=O)C(=O)COC(=O)c3ccccc3)cc12 |  | 41 |  |  | 16.2 | > 10000 | 4.2 | 67 |  |  |  |  | half-life [19]: 209 min

From ChEMBL document CHEMBL5154637, “Peptidomimetic α-Acyloxymethylketone Warheads with Six-Membered Lactam P1 Glutamine Mimic: SARS-CoV-2 3CL Protease Inhibition, Coronavirus Antiviral Activity, and in Vitro Biological Stability” (J Med Chem, 2022)
